# Measured values as given in patent US9783505B2, “Substituted diaminopyrimidyl compounds, compositions thereof, and methods of treatment therewith” (Signal Pharmaceuticals, LLC, priority 2013, dated 2017).
# Molecular target: T1, His-PKC-theta (Homo sapiens, UniProt Q04759)
# T1 construct: His; purchased Invitrogen
# Experiment: PKC-theta Assay (384-well time resolved fluorescence, IMAP TR-FRET)
# Format: biochemical
# Details: Table 2; read-out: Act. Level (IC50 in the PKC-theta Assay)
# Description: PKC-theta Assay. A 384-well time resolved fluorescence assay was used to monitor PKC-theta activity. The PKC-theta assay was run in the following assay buffer: 50 mM HEPES pH 7.6, 10 mM MgCl2, 1 mM DTT, 0.01% Triton X-100, 0.01% BSA and 0.1 mM EDTA. To initiate the reaction, 200 nM of Fam-labeled S6-derived peptide (Molecular Devices) and 10 μM of ATP were mixed with 142 pM of His-PKC-theta (Invitrogen) for a total assay volume of 25 μL in each well. The assay was incubated at room temperature for 2 hours and terminated using a 60 μL/well mixture of Detection Binding Solution: 70% IMAP Progressive Binding Buffer A, 30% IMAP Progressive Binding Buffer B, 1:600 Progressive Binding Reagent, and 1:400 TR-FRET Tb Donor (Molecular Devices). The assay plates were then incubated overnight at room temperature and read on a Perkin-Elmer Envision Reader.
# T1 sequence (Q04759 whole entry): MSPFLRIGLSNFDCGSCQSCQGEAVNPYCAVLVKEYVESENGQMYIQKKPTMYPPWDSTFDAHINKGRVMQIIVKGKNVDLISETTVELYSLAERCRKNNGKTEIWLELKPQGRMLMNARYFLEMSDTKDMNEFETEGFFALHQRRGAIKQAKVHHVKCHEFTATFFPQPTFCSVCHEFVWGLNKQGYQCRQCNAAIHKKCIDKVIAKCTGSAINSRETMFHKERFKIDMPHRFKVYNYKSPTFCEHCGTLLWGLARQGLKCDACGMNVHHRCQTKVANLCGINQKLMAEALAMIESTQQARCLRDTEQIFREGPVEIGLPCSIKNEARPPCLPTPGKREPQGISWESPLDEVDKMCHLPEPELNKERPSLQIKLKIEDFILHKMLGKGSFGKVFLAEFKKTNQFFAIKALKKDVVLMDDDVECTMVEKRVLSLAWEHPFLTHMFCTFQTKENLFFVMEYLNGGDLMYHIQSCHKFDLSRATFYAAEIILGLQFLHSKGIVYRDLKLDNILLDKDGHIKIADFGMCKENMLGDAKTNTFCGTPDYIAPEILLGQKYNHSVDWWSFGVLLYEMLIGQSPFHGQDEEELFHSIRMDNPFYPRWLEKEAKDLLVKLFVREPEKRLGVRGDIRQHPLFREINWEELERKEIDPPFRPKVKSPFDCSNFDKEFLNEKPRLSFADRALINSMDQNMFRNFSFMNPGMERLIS
row,Structure (SMILES),IC50
1,CC1(C)C[C@H](Nc2nc(NCCc3ccc(OC4CCCC4)cc3)ncc2C#N)CC[C@@H]1O [Cmpd 51],100 to 800 nM
2,CC1(C)[C@@H](CO)C[C@@H]1Nc1nc(NCCc2cccc(Cl)c2)ncc1C#N [Cmpd 77],2000 to 10000 nM
3,CC1(C)C[C@H](Nc2nc(NCCc3ccc(Cl)c(Cl)c3)ncc2C#N)CC[C@@H]1O [Cmpd 101],100 to 800 nM
4,CC1(C)C[C@@H](Nc2nc(NCC(O)c3ccc(OC(F)F)cc3)ncc2C#N)CC[C@H]1O (stereo partly drawn) [Cmpd 50],2000 to 10000 nM
5,CC1(C)C[C@H](Nc2nc(NCCc3ccccc3OC(F)F)ncc2C#N)CC[C@@H]1O [Cmpd 132],100 to 800 nM
6,CC1(C)[C@@H](O)C[C@H]1Nc1nc(NCCc2ccc(OC3CCCC3)cc2)ncc1C#N [Cmpd 118],800 to 2000 nM
7,N#Cc1cnc(NCc2ccc(F)cc2F)nc1N[C@H]1CC[C@@H](O)CC1 [Cmpd 20],2000 to 10000 nM
8,CC1(C)C[C@H](Nc2nc(NCCc3ccc(F)cc3)ncc2C#N)CC[C@@H]1O [Cmpd 93],100 to 800 nM
9,COc1ccc(CCNc2ncc(C#N)c(N[C@@H]3CC[C@H](O)C(C)(C)C3)n2)cc1OC [Cmpd 36],100 to 800 nM
10,N#Cc1cnc(NCc2ccccc2Oc2ccc(F)cc2)nc1N[C@H]1CC[C@@H](O)CC1 [Cmpd 12],800 to 2000 nM
11,CC1(C)C[C@H](Nc2nc(NCCc3ccc(S(=O)(=O)N4CCCC4)cc3)ncc2C#N)CC[C@@H]1O [Cmpd 174],100 to 800 nM
12,CC1(C)C[C@H](Nc2nc(NCCc3ccc(S(=O)(=O)C(F)(F)F)cc3)ncc2C#N)CC[C@@H]1O [Cmpd 185],100 to 800 nM
13,N#Cc1cnc(NCCc2cccc(Cl)c2)nc1N[C@H]1C[C@@H](O)C1 [Cmpd 70],800 to 2000 nM
14,N#Cc1cnc(NCc2ccccc2OC(F)F)nc1N[C@H]1CC[C@@H](O)CC1 [Cmpd 4],100 to 800 nM
15,CN(C)c1ccc(CCNc2ncc(C#N)c(N[C@@H]3C[C@H](O)C3(C)C)n2)cc1 [Cmpd 133],100 to 800 nM
16,N#Cc1cnc(NCCc2cccc(Cl)c2)nc1N[C@H]1C[C@H](O)C1 [Cmpd 71],2000 to 10000 nM
17,CC1(C)C[C@H](O)CC[C@@H]1Nc1nc(NCCc2cccc(Cl)c2)ncc1C#N [Cmpd 189],800 to 2000 nM
18,CN1CCN(S(=O)(=O)c2ccc(CCNc3ncc(C#N)c(N[C@@H]4CC[C@H](O)C(C)(C)C4)n3)cc2)CC1 [Cmpd 179],100 to 800 nM
19,CC1(C)[C@@H](O)C[C@H]1Nc1nc(NCCc2ccc(S(N)(=O)=O)cc2)ncc1C#N [Cmpd 113],100 to 800 nM

row,Structure (SMILES),IC50
1,CC1(C)[C@@H](Nc2nc(NCCc3cccc(Cl)c3)ncc2C#N)C[C@@H]1C(N)=O [Cmpd 162],100 to 800 nM
2,Cc1nnnn1-c1cccc(CCNc2ncc(C#N)c(N[C@@H]3CC[C@H](O)C(C)(C)C3)n2)c1 [Cmpd 169],100 to 800 nM
3,Cc1nnnn1-c1ccc(CCNc2ncc(C#N)c(N[C@@H]3CCC[C@@](C)(O)C3)n2)cc1 [Cmpd 191],2000 to 10000 nM
4,CC1(C)C[C@H](Nc2nc(NCCc3ccc(C(F)(F)F)cc3)ncc2C#N)CC[C@@H]1O [Cmpd 99],100 to 800 nM
5,CC1(C)[C@@H](O)C[C@H]1Nc1nc(NCCc2ccc(O)cc2)ncc1C#N [Cmpd 84],100 to 800 nM
6,CC1(C)[C@@H](O)C[C@H]1Nc1nc(NCCc2ccc(Oc3ccccc3)cc2)ncc1C#N [Cmpd 119],100 to 800 nM
7,CN(C)C(=O)c1cccc(CCNc2ncc(C#N)c(N[C@@H]3CC[C@H](O)C(C)(C)C3)n2)c1 [Cmpd 61],2000 to 10000 nM
8,CC1(C)[C@H](CO)C[C@H]1Nc1nc(NCCc2cccc(Cl)c2)ncc1C#N [Cmpd 76],< 100 nM
9,CC1(C)[C@@H](O)C[C@H]1Nc1nc(NCC(F)(F)c2ccccc2)ncc1C#N [Cmpd 43],100 to 800 nM
10,CC1(C)C[C@H](Nc2nc(NCCc3cc(C(F)(F)F)cc(C(F)(F)F)c3)ncc2C#N)CC[C@@H]1O [Cmpd 54],800 to 2000 nM
11,N#Cc1cnc(NCc2ccccc2-c2ccccc2)nc1N[C@H]1CC[C@@H](O)CC1 [Cmpd 10],100 to 800 nM
12,Cc1nnnn1-c1ccccc1CNc1ncc(C#N)c(NC2CCC(O)C(C)(C)C2)n1 (stereo not drawn) [Cmpd 1],< 100 nM
13,CC1(C)C[C@H](Nc2nc(NCCc3ccc(F)c(Cl)c3)ncc2C#N)CC[C@@H]1O [Cmpd 88],< 100 nM
14,CC1(C)[C@@H](O)C[C@H]1Nc1nc(NCCc2ccc(F)cc2)ncc1C#N [Cmpd 102],100 to 800 nM
15,CC(F)(F)COc1ccccc1CCNc1ncc(C#N)c(N[C@@H]2CC[C@H](O)C(C)(C)C2)n1 [Cmpd 152],800 to 2000 nM
16,CC1(C)C[C@H](Nc2nc(NCCc3ccc(F)cc3F)ncc2C#N)CC[C@@H]1O [Cmpd 197],100 to 800 nM
17,COc1ccc(C(CNc2ncc(C#N)c(N[C@@H]3CC[C@H](O)C(C)(C)C3)n2)N2CCOCC2)cc1 (stereo partly drawn) [Cmpd 39],2000 to 10000 nM
18,CC1(C)C[C@@H](O)CC[C@H]1Nc1nc(NCCc2cccc(Cl)c2)ncc1C#N [Cmpd 190],< 100 nM

# Same assay, conditions: read-out: Act. Level (IC50 in the PKC-theta Assay)
row,Structure (SMILES),IC50
1,COC1CC(Nc2nc(NCc3cnccc3C(F)(F)F)ncc2C(F)(F)F)C1(C)C (stereo not drawn) [Cmpd 3],< 100 nM
2,O[C@H]1C[C@@H](Nc2nc(NCc3cnccc3C(F)(F)F)ncc2C(F)(F)F)C1 [Cmpd 95],100 to 800 nM
3,CCOc1ncncc1CNc1ncc(C(F)(F)F)c(N[C@@H]2C[C@H](O)C2(C)C)n1 [Cmpd 57],< 100 nM
4,CC(C)(F)c1ncncc1CNc1ncc(C#N)c(N[C@@H]2C[C@H](CO)C2(C)C)n1 [Cmpd 15],< 100 nM
5,N#Cc1cnc(NCc2cncnc2-c2ccccc2)nc1N[C@H]1CC[C@@H](O)CC1 [Cmpd 52],< 100 nM
6,CC(F)(F)COc1ncncc1CNc1ncc(C#N)c(N[C@@H]2C[C@H](O)C2(C)C)n1 [Cmpd 16],< 100 nM
7,N#Cc1cnc(NCCC2(O)C(=O)Nc3ccccc32)nc1N[C@H]1CC[C@@H](O)CC1 (stereo partly drawn) [Cmpd 162],2000 to 10000 nM
8,COc1cccc2[nH]cc(CCNc3ncc(C#N)c(N[C@@H]4CC[C@H](O)C(C)(C)C4)n3)c12 [Cmpd 175],100 to 800 nM
9,CC1(C)C[C@H](Nc2nc(NCc3cncnc3OCC(F)F)ncc2C#N)CC[C@@H]1O [Cmpd 34],< 100 nM
10,COc1ccc2c(CCNc3ncc(C#N)c(N[C@H]4CC[C@@H](O)CC4)n3)c[nH]c2c1 [Cmpd 164],800 to 2000 nM
11,O[C@H]1CC[C@@H](Nc2nc(NCc3cncnc3C(F)(F)F)ncc2C(F)(F)F)CC1 [Cmpd 81],< 100 nM
12,CC1(C)C[C@H](Nc2nc(NCCc3ccco3)ncc2C#N)CC[C@@H]1O [Cmpd 196],100 to 800 nM
13,CC(C)c1ncncc1CNc1ncc(C#N)c(N[C@@H]2C[C@H](CO)C2(C)C)n1 [Cmpd 54],< 100 nM
14,COC1CC(Nc2nc(NCc3cnccc3C(F)(F)F)ncc2C(F)(F)F)C1(C)C (stereo not drawn) [Cmpd 102],100 to 800 nM
15,CC1(C)C[C@H](Nc2nc(NCCc3n[nH]c4ccccc34)ncc2C#N)CC[C@@H]1O [Cmpd 176],800 to 2000 nM
16,Cc1ccnn1CCNc1ncc(C#N)c(N[C@@H]2CC[C@H](O)C(C)(C)C2)n1 [Cmpd 193],2000 to 10000 nM
17,Cc1ccc2c(CCNc3ncc(C#N)c(N[C@@H]4CC[C@H](O)C(C)(C)C4)n3)c[nH]c2c1 [Cmpd 174],800 to 2000 nM
18,CC(C)(F)c1ncncc1CNc1ncc(C(F)(F)F)c(N[C@@H]2C[C@H](O)C2(C)C)n1 [Cmpd 1],< 100 nM
19,CC1(C)[C@H](O)C[C@@H]1Nc1nc(NCc2cncnc2OCCC(F)(F)F)ncc1C(F)(F)F [Cmpd 83],< 100 nM

row,Structure (SMILES),IC50
1,CC1(C)[C@H](CO)C[C@@H]1Nc1nc(NCc2cnccc2C(F)(F)F)ncc1C(F)(F)F [Cmpd 91],100 to 800 nM
2,CC1(C)C[C@H](Nc2nc(NCCc3cccs3)ncc2C#N)CC[C@@H]1O [Cmpd 185],100 to 800 nM
3,CC(F)(F)COc1ncncc1CNc1ncc(C(F)(F)F)c(N[C@@H]2C[C@H](O)C2(C)C)n1 [Cmpd 13],< 100 nM
4,Cc1ccn(CCNc2ncc(C#N)c(N[C@@H]3CC[C@H](O)C(C)(C)C3)n2)n1 [Cmpd 194],2000 to 10000 nM
5,CC1(C)C[C@H](Nc2nc(NCc3c[n+]([O-])ccc3C(F)(F)F)ncc2C(F)(F)F)CC[C@@H]1O [Cmpd 40],< 100 nM
6,C[C@]1(O)CC[C@@H](Nc2nc(NCc3cncnc3C(F)(F)F)ncc2C#N)CC1 [Cmpd 106],100 to 800 nM
7,CC1(C)[C@@H](Nc2nc(NCc3cncnc3-c3ccc(F)cc3)ncc2C#N)C[C@@H]1O [Cmpd 111],100 to 800 nM
8,CC(C)(F)c1ncncc1CNc1ncc(C#N)c(N[C@H]2CC[C@@](C)(O)CC2)n1 [Cmpd 50],< 100 nM
9,Cc1cc(C(F)(F)F)c(CNc2ncc(C#N)c(N[C@H]3CC[C@@](C)(O)CC3)n2)c[n+]1[O-] [Cmpd 146],800 to 2000 nM
10,COc1ccc2c(CCNc3ncc(C#N)c(N[C@@H]4CC[C@H](O)C(C)(C)C4)n3)c[nH]c2c1 [Cmpd 183],< 100 nM
11,CC1(C)[C@@H](CO)C[C@@H]1Nc1nc(NCc2cnccc2C(F)(F)F)ncc1C(F)(F)F [Cmpd 131],100 to 800 nM
12,CC1(C)C[C@H](Nc2nc(NCc3cncnc3OCCC(F)(F)F)ncc2C#N)CC[C@@H]1O [Cmpd 6],< 100 nM
13,CC1(C)[C@@H](Nc2nc(NCc3cnccc3C(F)(F)F)ncc2C(F)(F)F)C[C@@H]1O [Cmpd 143],800 to 2000 nM
14,CC1(C)C[C@H](Nc2nc(NCCc3ncon3)ncc2C#N)CC[C@@H]1O [Cmpd 191],2000 to 10000 nM
15,N#Cc1cnc(NCCc2c[nH]c3ccccc23)nc1N[C@H]1CC[C@@H](O)CC1 [Cmpd 154],100 to 800 nM
16,CC1(C)C[C@H](Nc2nc(NCc3cncnc3C(F)(F)F)ncc2C#N)CC[C@@H]1O [Cmpd 43],< 100 nM
17,CC1(C)[C@@H](O)C[C@H]1Nc1nc(NCc2cncnc2OCCC(F)(F)F)ncc1C#N [Cmpd 4],< 100 nM
18,N#Cc1cnc(NCCC2C(=O)Nc3ccccc32)nc1N[C@H]1CC[C@@H](O)CC1 (stereo partly drawn) [Cmpd 155],100 to 800 nM
19,CCOc1ncncc1CNc1ncc(C(F)(F)F)c(N[C@@H]2CC[C@H](O)C(C)(C)C2)n1 [Cmpd 25],< 100 nM
